Article PMC8659031, “Substituted Aryl Benzylamines as Potent and Selective Inhibitors of 17β-Hydroxysteroid Dehydrogenase Type 3” (Molecules, 2021)
Entries after “also recorded” stand apart in the source; their conditions may differ. Like-named read-outs stand apart in the source and are kept apart here.

What was measured:
17β-HSD3 = molecular target: T1, 17β-HSD3 (Homo sapiens, UniProt P37058); test: Assay for 17β-HSD3 activity (TLC assay) in 293-EBNA cells stably transfected with 17β-HSD3; type: cell-based; settings: for inhibition at 10 µM: 293-EBNA
T1 construct: expressed in transfected cells; host or cells: human 293-EBNA cells, stably transfected
T1 sequence (P37058 1-310): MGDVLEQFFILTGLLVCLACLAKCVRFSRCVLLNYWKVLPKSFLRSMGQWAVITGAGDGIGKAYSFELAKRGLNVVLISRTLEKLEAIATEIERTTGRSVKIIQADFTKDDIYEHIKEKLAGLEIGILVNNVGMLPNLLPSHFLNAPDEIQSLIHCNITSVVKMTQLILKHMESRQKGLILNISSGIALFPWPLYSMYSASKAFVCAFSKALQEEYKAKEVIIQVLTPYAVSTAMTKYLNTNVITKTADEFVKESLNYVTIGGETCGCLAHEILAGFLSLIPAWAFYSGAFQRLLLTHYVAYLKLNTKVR
Description: Human 293-EBNA cells stably transfected with 17β-HSD3 were plated at 50,000 cells/well in 24 well plates in complete growth medium. After 48 h 2–3 nM [^3H]-androstenedione in assay medium (500 mL DMEM medium with 5 mL 100 × L-glutamine and 5 mL 7.5% sodium bicarbonate solution) was added with or without test compound at 1.5 mL/well (triplicate), and the cells incubated at 37 °C. Two hours later 1 mL medium was removed from each well and placed in a 125 × 16 mm glass test tube containing 25 µL of recovery solution (5000 dpm ^14C-testosterone and 25 µg unlabelled testosterone […], and the tubes vortexed at high speed for 2 × 30 s. After the samples had settled into two phases, they were snap-frozen in a dry ice/methanol bath. The upper organic phase was decanted into 75 × 12 mm tubes and evaporated to dryness under an airstream using a sample concentrator (TECHNE) at 40 °C. The samples were resuspended in ether (8 drops, then a further 3), spotted onto ca 60 F254 20 cm × 20 cm TLC plates and separated using a 4:1 v/v dichloromethane: ethyl acetate mobile phase. After drying the plates, the major spots were marked under a UV lamp, cut out and placed in individual scintillation vials containing 0.5 mL methanol. These were then shaken lightly and allowed to stand for 15 min before adding 10 mL of EcoScintA (scintillation fluid) to each tube along with 0.5 mL assay medium and counted in a scintillation spectrometer (Beckman, High Wycombe, Bucks, UK), using a program for duel [^3H/^14C] isotopes. The number of cells/well was then counted using a Coulter10 counter (Beckman). The inhibitory activity of the test compounds was then assessed by calculating the amount of product formed correcting for crossover between isotope counts, recovery, dilution and non-enzymatic degradation fmol/hr/million cells) with and without inhibitor (% inhibition).

[1] = Compound toxicity, MTS/Alamar Blue proliferation assay, PC-3; type: cell-based; settings: human, PC-3 (AR-) prostate cancer cells; PC3 (AR-); read-out: Cytotoxicity IC50 (µM) PC3 (AR-)
Description: (§1) AR+ (LNCaP) and AR- (PC-3) PCa cell lines were used as standard lines to determine the cytotoxicity of HSD3 inhibitor compounds. Toxicity was assessed over 96 h in 96 well plates using the standard MTS/Alamar Blue proliferation assay and over longer durations by cell counting methodologies.

[2] = Compound toxicity, MTS/Alamar Blue proliferation assay, LNCaP; type: cell-based; settings: human, LNCaP (AR+) prostate cancer cells; read-out: Cytotoxicity IC50 (µM) LNCaP (AR+)
Description: as §1

[3] = 10 μM, TLC assay, mean of at least two measurements, typically SD ±5%
[4] = TLC assay, 293-EBNA[HSD3] cells, read-out: IC50 (17β-HSD3)

For “1-[4-(2-[2-(4-Chloro-phenoxy)-phenylamino]-methyl-phenylamino)-piperidin-1-yl]-ethanone [Compound 21]”, the “% Inhibition at 10 μM (17β-HSD3)” value (17β-HSD3; [3]) was 36%.
In the case of `CC(=O)N1Cc2ccccc2CSc2ccccc21` [BMS Dibenzazocine], the IC50 (17β-HSD3; Table 11, read-out: HSD3 Activity (IC50 nM)) is reported as 8.6 nM, the IC50 at 96 h [1] is reported as > 50 µM and the IC50 at 96 h [2] is reported as 19.4 µM.
`CC(=O)Nc1ccccc1CNc1ccccc1Oc1ccc(OC(F)(F)F)cc1` [Compound 2, N-(2-([2-(4-Trifluoromethoxy-phenoxy)-phenylamino]-methyl)-phenyl)-acetamide] showed a melting point of 98 to 100 °C and an inhibition at 10 µM (17β-HSD3; [3]) of 60 to 70%.
Work on `CC(=O)Nc1ccccc1CNc1cc(F)ccc1Oc1ccc(Cl)cc1` [Compound 3, N-(2-([2-(4-Chloro-phenoxy)-5′-fluoro-phenylamino]-methyl)-phenyl)-acetamide] yielded a melting point of 178 to 180 °C and an inhibition at 10 µM (17β-HSD3; [3]) of 60 to 70%.
In the case of `CC(=O)Nc1cc2c(cc1CNc1ccccc1Oc1ccc(Cl)cc1)OCO2` [Compound 4, N-(6-[2-(4-Chloro-phenoxy)-phenylamino]-methyl-benzo[1,3]dioxol-5-yl)-acetamide], the melting point is reported as 154 to 156 °C, the “17β-HSD3 inhibitory activity in words” value (17β-HSD3) is reported as “good activity; also recorded: active” and the inhibition at 10 µM (17β-HSD3; [3]) is reported as 86%. The IC50 (17β-HSD3; [4]) was 450 nM.
With `COc1cc(CNc2ccccc2Oc2ccc(Cl)cc2)c(NC(C)=O)cc1OC` [Compound 5, N-(2-[2-(4-Chloro-phenoxy)-phenylamino]-methyl-4,5-dimethoxy-phenyl)-acetamide] the melting point was 117 to 118 °C, the “17β-HSD3 inhibitory activity in words” value (17β-HSD3) was “activity was lost; also recorded: inactive” and the inhibition at 10 µM (17β-HSD3; [3]) was < 20%.
With `COc1cc(CNc2ccccc2Oc2ccc(Cl)cc2Cl)c(NC(C)=O)cc1OC` [Compound 6, N-(2-([2-(2,4-Dichloro-phenoxy)-phenylamino]-methyl)-4,5-dimethoxy-phenyl)-acetamide] the melting point was 128 to 131 °C, the “17β-HSD3 inhibitory activity in words” value (17β-HSD3) was “activity was lost; also recorded: inactive” and the inhibition at 10 µM (17β-HSD3; [3]) was < 20%.
With `CC(=O)Nc1c(CNc2ccccc2Oc2ccc(Cl)cc2)ccc2ccccc12` [Compound 7, N-(2-[2-(4-Chloro-phenoxy)-phenylamino]-methyl-naphthalen-1-yl)-acetamide] the melting point was 153 to 155 °C and the inhibition at 10 µM (17β-HSD3; [3]) was < 20%.
Work on `CC(=O)Nc1ccc(C)cc1CNc1ccccc1Oc1ccc(Cl)cc1` [Compound 8, N-(2-[2-(4-Chloro-phenoxy)-phenylamino]-methyl-4-methyl-phenyl)-acetamide] yielded a melting point of 138 to 140 °C and an inhibition at 10 µM (17β-HSD3; [3]) of 60 to 70%.
For `CC(=O)Nc1ccc(Cl)cc1CNc1ccccc1Oc1ccc(Cl)cc1` [Compound 9, N-(4-Chloro-2-[2-(4-chloro-phenoxy)-phenylamino]-methyl-phenyl)-acetamide], the inhibition at 10 µM (17β-HSD3; [3]) was 97% and the IC50 (17β-HSD3; [4]) was 1900 nM.
With `CC(=O)Nc1ccc(Cl)cc1CNc1ccccc1Oc1ccc(Cl)cc1Cl` [Compound 10, N-(4-Chloro-2-[2-(2,4-dichloro-phenoxy)-phenylamino]-methyl-phenyl)-acetamide] the melting point was 135 to 137 °C and the inhibition at 10 µM (17β-HSD3; [3]) was < 20%.
With `CC(=O)Nc1ccc(Cl)cc1CNc1ccccc1Oc1ccc(OC(F)(F)F)cc1` [Compound 11, N-(4-Chloro-2-[2-(4-trifluoromethoxy-phenoxy)-phenylamino]-methyl-phenyl)-acetamide] the melting point was 121 to 123 °C and the “17β-HSD3 inhibitory activity in words” value (17β-HSD3) was “good activity”.
`CC(=O)N(C)c1ccccc1CNc1ccccc1Oc1ccc(Cl)cc1` [Compound 14, N-(2-([2-(4-Chloro-phenoxy)-phenylamino]-methyl)-phenyl)-N-methyl-acetamide] gave an IC50 (17β-HSD3; [4]) of 460 nM.
With `CC(=O)N(C)c1ccccc1CN(C)c1ccccc1Oc1ccc(Cl)cc1` [Compound 15, N-[2-(([2-(4-Chloro-phenoxy)-phenyl]-methyl-amino)-methyl)-phenyl]-N-methyl-acetamide] the “17β-HSD3 inhibitory activity in words” value (17β-HSD3) was “weakly active” and the inhibition at 10 µM (17β-HSD3; [3]) was 60 to 70%.
In the case of `CC(=O)Nc1ccccc1CN(C)c1ccccc1Oc1ccc(Cl)cc1` [Compound 16, N-[2-(([2-(4-Chloro-phenoxy)-phenyl]-methyl-amino)-methyl)-phenyl]-acetamide], the “17β-HSD3 inhibitory activity in words” value (17β-HSD3) is reported as “inactive” and the inhibition at 10 µM (17β-HSD3; [3]) is reported as < 20%.
In the case of `CC(=O)Nc1ccccc1CN(C(C)=O)c1ccccc1Oc1ccc(Cl)cc1` [Compound 17, N-(2-Acetylamino-benzyl)-N-[2-(4-chloro-phenoxy)-phenyl]-acetamide], the “17β-HSD3 inhibitory activity in words” value (17β-HSD3) is reported as “inactive” and the inhibition at 10 µM (17β-HSD3; [3]) is reported as < 20%.
Work on `CC(=O)Nc1ccc(CNc2ccccc2Oc2ccc(Cl)cc2)cc1` [Compound 18, N-(4-([2-(4-Chloro-phenoxy)-phenylamino]-methyl)-phenyl)-acetamide] yielded a melting point of 137 to 139 °C and an inhibition at 10 µM (17β-HSD3; [3]) of 29%.
With `CC(=O)Nc1ccc(CNc2ccccc2Oc2ccc(Cl)cc2Cl)cc1` [Compound 19, N-(4-([2-(2,4-Dichloro-phenoxy)-phenylamino]-methyl)-phenyl)-acetamide] the “17β-HSD3 inhibitory activity in words” value (17β-HSD3) was “inactive” and the inhibition at 10 µM (17β-HSD3; [3]) was < 20%.
For `CC(=O)Nc1cccc(CNc2ccccc2Oc2ccc(Cl)cc2)c1` [Compound 20, N-(3-[2-(4-Chloro-phenoxy)-phenylamino]-methyl-phenyl)-acetamide], the melting point was 187 to 190 °C and the inhibition at 10 µM (17β-HSD3; [3]) was 53%.
With `CC(=O)N1CCC(Nc2ccccc2CN(C(C)=O)c2ccccc2Oc2ccc(Cl)cc2)CC1` [Compound 22, N-[2-(1-Acetyl-piperidin-4-ylamino)-benzyl]-N-[2-(4-chloro-phenoxy)-phenyl]-acetamide] the inhibition at 10 µM (17β-HSD3; [3]) was 55%.
Molecule `CC(=O)N1CCC(C(=O)Nc2cccc(CNc3ccccc3Oc3ccc(Cl)cc3)c2)CC1` [Compound 24, 1-Acetyl-piperidine-4-carboxylic acid (3-[2-(4-chloro-phenoxy)-phenylamino]-methyl-phenyl)-amide] has an inhibition at 10 µM (17β-HSD3; [3]) of 97% and an IC50 (17β-HSD3; [4]) of 1100 nM.
For `CCNc1ccccc1C(C)Nc1ccccc1Oc1ccc(Cl)cc1` (stereo not shown) [Compound 25, N-(2–1-[2-(4-Chloro-phenoxy)-phenylamino]-ethyl-phenyl)-ethylamine], the inhibition at 10 µM (17β-HSD3; [3]) was 20 to 60%.
Work on `C=CCC(Nc1ccccc1Oc1ccc(Cl)cc1)c1ccccc1NC(C)=O` (stereo not shown) [Compound 26] yielded an inhibition at 10 µM (17β-HSD3; [3]) of 20 to 60% and an IC50 (17β-HSD3; [4]) of 520 nM.
For `CC(=O)Nc1ccccc1C(Cc1ccccc1)Nc1ccccc1Oc1ccc(Cl)cc1` (stereo not shown) [Compound 27, N-(2-(1-[2-(4-Chloro-phenoxy)-phenylamino]-2-phenyl-ethyl)-phenyl)-acetamide], the inhibition at 10 µM (17β-HSD3; [3]) was < 20%.
For `CCCC(Nc1ccccc1Oc1ccc(Cl)cc1)c1ccccc1NC(C)=O` (stereo not shown) [Compound 28, N-(2-(1-[2-(4-Chloro-phenoxy)-phenylamino]-butyl)-phenyl)-acetamide], the IC50 (17β-HSD3; [4]) was 370 nM.
`CC(=O)Nc1ccccc1C(C)Nc1ccccc1Oc1ccc(Cl)cc1` (stereo not shown) [Compound 29, N-(2-(1-[2-(4-Chloro-phenoxy)-phenylamino]-ethyl)-phenyl)-acetamide] showed an IC50 (17β-HSD3; [4]) of 76 nM, an IC50 at 96 h [1] of 18.3 µM and an IC50 at 96 h [2] of 14.6 µM.
With `C=CC[C@H](Nc1ccccc1Oc1ccc(Cl)cc1)c1ccccc1NC(C)=O` [Compound 32, S-(+)-N-(2-(1-[2-(4-Chloro-phenoxy)-phenylamino]-but-2-enyl)-phenyl)-acetamide] the melting point was 139 to 141 °C, the “17β-HSD3 inhibitory activity in words” value (17β-HSD3) was “active” and the IC50 (17β-HSD3; [4]) was 370 nM.
